Experimental findings from ChEMBL document CHEMBL1201862, “PubChem BioAssay data set” (2004) are described below.

Among the test systems are M19-MEL; DMS-273; KM-20L2; DMS-114; HOP-18; SNB-78; XF498; LXFL 529; RXF 631.
What all share (experiment): growth of human tumour cells (NCI), 48 h

Structures are written as SMILES.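 Five concentrations, 48 hours, 96-well plates. GI50 is the concentration that inhibits growth by half.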 Active and inactive are the calls of the source. Cut-off read from the data, not from the text of the source: active = GI50 up to about 1.1 µM and inactive = higher.

On to `Cc1ccc(/C=C/C(=O)c2sc(-n3nc(-c4ccccc4)cc3-c3ccccc3)nc2C)cc1`, for which the GI50 in the experiment with M19-MEL was > 100 µM (inactive); in the experiment on DMS-273, > 100 µM (inactive); in the experiment on KM-20L2 it was > 100 µM (inactive); in the experiment on DMS-114, 10.6 µM (inactive); in the experiment with HOP-18 it was > 100 µM (inactive); in the experiment with SNB-78 it was > 100 µM (inactive).
On to `Nc1ccn(C2OC(COC(=O)C34CC5CC(CC(C5)C3)C4)C(O)C2O)c(=O)n1` (stereo unspecified), for which the GI50 in the experiment with M19-MEL was > 100 µM (inactive); with DMS-273, > 100 µM (inactive); in the experiment with KM-20L2, > 100 µM (inactive); with DMS-114 it was 12.4 µM (inactive); in the experiment on HOP-18, > 100 µM (inactive); in the experiment with SNB-78 it was > 100 µM (inactive).
For the molecule `Cc1ccc(OCC(=O)N2N=C(c3ccccc3)CC2(O)c2ccccc2)cc1` (stereo unspecified), the GI50 in the experiment on M19-MEL is 44.6 µM (inactive); with XF498 it was > 100 µM (inactive); in the experiment on DMS-273, 20.8 µM (inactive); in the experiment on KM-20L2 it was 18 µM (inactive); with LXFL 529, 19.3 µM (inactive); with RXF 631 it was 26.9 µM (inactive). The GI50 in the experiment on SNB-78 is 22.1 µM (inactive).
Turning to `COC1=CC(=O)NCCN1`, the GI50 in the experiment on M19-MEL was > 100 µM (inactive); in the experiment on XF498, > 100 µM (inactive); with DMS-273, 78.7 µM (inactive); with KM-20L2, > 100 µM (inactive); with LXFL 529, > 100 µM (inactive); in the experiment with DMS-114 it was > 100 µM (inactive). Besides, the GI50 in the experiment on RXF 631, in the experiment on HOP-18 and in the experiment on SNB-78 was > 100 µM (inactive) each time.
As for `O=C(NCCOC(=O)CCCCCCCCC(=O)OCCNC(=O)NC(=O)c1cn(Cc2ccccc2)c(=O)[nH]c1=O)NC(=O)c1cn(Cc2ccccc2)c(=O)[nH]c1=O`, the GI50 in the experiment on M19-MEL, in the experiment with XF498, with DMS-273, in the experiment on KM-20L2, with LXFL 529 and in the experiment on DMS-114 was > 100 µM (inactive) throughout. The GI50 in the experiment on SNB-78 is > 100 µM (inactive).
As to `Cc1ccc(NC(=O)c2cc3cc(/N=N/c4ccc(Br)cc4)ccc3oc2=O)cc1`, the GI50 in the experiment on XF498 is > 100 µM (inactive); with DMS-273 it was 41.8 µM (inactive); in the experiment with DMS-114, 37 µM (inactive); in the experiment on HOP-18 it was < 0.01 µM (active); in the experiment on SNB-78, > 100 µM (inactive).
As for `O=C1C(=O)N(c2ccc(Cl)cc2Cl)C(=O)C(=O)C1c1nc2ccccc2s1`, the GI50 is > 100 µM (inactive) in the experiment with M19-MEL; > 55 µM (inactive) in the experiment on XF498; > 100 µM (inactive) in the experiment on DMS-273; > 100 µM (inactive) in the experiment on KM-20L2; 50.6 µM (inactive) with LXFL 529; > 72.4 µM (inactive) with DMS-114. In addition, the GI50 with HOP-18 is > 100 µM (inactive).
In the case of `Nc1nc(=O)n(C2CC(O)C(O)C(CO)O2)cc1F` (stereo unspecified), the GI50 with M19-MEL was > 100 µM (inactive); with XF498 it was 61.4 µM (inactive); in the experiment with KM-20L2, > 100 µM (inactive); with LXFL 529, > 100 µM (inactive); in the experiment with DMS-114, > 100 µM (inactive); in the experiment with RXF 631, > 100 µM (inactive). The GI50 in the experiment on HOP-18 and in the experiment with SNB-78 was > 100 µM (inactive) each time.
Turning to `CCOC(=O)CCC(NC(=O)c1ccc(/N=C/c2nc3ccccc3nc2-c2ccccc2)cc1)C(=O)OCC` (stereo unspecified), the GI50 with XF498, in the experiment on DMS-273, in the experiment on KM-20L2, in the experiment with LXFL 529, with DMS-114 and in the experiment on RXF 631 was > 100 µM (inactive) throughout. Moreover, the GI50 was 35.4 µM (inactive) in the experiment with HOP-18 and > 100 µM (inactive) with SNB-78.
With `N#Cc1nn(-c2ccc(Cl)cc2)c(=N)c2c(N)n3nc(-c4ccccc4)cc3nc12`, the GI50 is 41.4 µM (inactive) in the experiment on XF498; 1 µM (active) with DMS-273; 1 µM (active) with KM-20L2; 0.705 µM (active) in the experiment on LXFL 529; < 0.01 µM (active) in the experiment on HOP-18; 1 µM (active) in the experiment with SNB-78.
With `COc1cc(/C=C2/C(=O)N(C(=O)OC(C)C)C(Cc3cc(OC)c(OC)c(C)c3OC)C(=O)N2Cc2ccccc2)c(OC)c(C)c1OC` (stereo unspecified), the GI50 was 57 µM (inactive) with M19-MEL; 14 µM (inactive) with DMS-273; 24.8 µM (inactive) in the experiment with KM-20L2; 10.4 µM (inactive) in the experiment on LXFL 529; 13.6 µM (inactive) in the experiment on DMS-114; 49.5 µM (inactive) in the experiment with HOP-18.
On to `Cc1c(C)c2ccc3oc4ccccc4c3c2oc1=O`, for which the GI50 with M19-MEL is > 100 µM (inactive); with KM-20L2 it was > 100 µM (inactive); with LXFL 529, > 100 µM (inactive); in the experiment on DMS-114, 86.7 µM (inactive); with RXF 631 it was > 100 µM (inactive); with HOP-18, > 100 µM (inactive). Moreover, in the experiment with SNB-78, the GI50 was > 100 µM (inactive).
As for `COC(=O)c1ncc2c(=O)[nH]c3ccccc3c2c1C(=O)OC`, the GI50 in the experiment with M19-MEL, with XF498, in the experiment on DMS-273, in the experiment with KM-20L2, with LXFL 529 and with DMS-114 was > 100 µM (inactive) throughout. Moreover, the GI50 with RXF 631, in the experiment with HOP-18 and in the experiment with SNB-78 was > 100 µM (inactive) throughout.
In the case of `CCOC(=O)NC(=O)c1cn(CCCOC(=O)CCCCCCCCC(=O)OCCCn2cc(C(=O)NC(=O)OCC)c(=O)[nH]c2=O)c(=O)[nH]c1=O`, the GI50 with M19-MEL is 12.9 µM (inactive); in the experiment on XF498, 20.7 µM (inactive); in the experiment on DMS-273 it was 20.5 µM (inactive); in the experiment with KM-20L2, 34.5 µM (inactive); in the experiment with LXFL 529, 28 µM (inactive); with DMS-114, 6.65 µM (inactive). The results for the GI50 in the experiment on HOP-18 and in the experiment with SNB-78 were 29.1 µM (inactive) and 8 µM (inactive), respectively.
Take `c1cc2n(n1)CCN2`: the GI50 was 6870 µM (inactive) in the experiment on M19-MEL; 431 µM (inactive) with XF498; 262 µM (inactive) in the experiment on DMS-273; 2970 µM (inactive) with KM-20L2; 1560 µM (inactive) with DMS-114; 4030 µM (inactive) in the experiment with HOP-18. Besides, the GI50 in the experiment on SNB-78 is 4740 µM (inactive).
In the case of `CC1(C)OC(=O)[C@@](C)([C@H](O)c2ccccc2)O1`, the GI50 is > 100 µM (inactive) with M19-MEL; > 100 µM (inactive) with XF498; > 100 µM (inactive) in the experiment with DMS-273; > 100 µM (inactive) in the experiment with KM-20L2; > 100 µM (inactive) in the experiment on LXFL 529; 56.8 µM (inactive) in the experiment on DMS-114. Also, the GI50 was 79.4 µM (inactive) with RXF 631 and > 100 µM (inactive) in the experiment with SNB-78.
With `O=C(O)c1ccccc1C1c2ccc(Cl)cc2Oc2cc(Cl)ccc21`, the GI50 with M19-MEL, in the experiment on DMS-273, with KM-20L2, in the experiment with LXFL 529, with DMS-114 and in the experiment with RXF 631 was > 100 µM (inactive) throughout. The GI50 in the experiment on HOP-18 is > 100 µM (inactive).
On to `O=c1c([Se]c2coc3ccccc3c2=O)coc2ccccc12`, for which the GI50 was 15.3 µM (inactive) in the experiment on M19-MEL; 16.8 µM (inactive) in the experiment with XF498; 11 µM (inactive) with DMS-273; 12 µM (inactive) with KM-20L2; 15.4 µM (inactive) in the experiment with LXFL 529; 17.5 µM (inactive) in the experiment with DMS-114. For the same molecule, the GI50 in the experiment with HOP-18 was 15.7 µM (inactive); in the experiment with SNB-78 it was 19.9 µM (inactive).
For `CCOP1(=O)C=C(C)C(=C(Cl)Cl)C(C)=C1` (stereo unspecified), the GI50 in the experiment with M19-MEL was 8.07 µM (inactive); with XF498, 0.548 µM (active); in the experiment on KM-20L2, 2.68 µM (inactive); in the experiment with LXFL 529, 3.78 µM (inactive); in the experiment on RXF 631, 5.87 µM (inactive); in the experiment on HOP-18, 13.8 µM (inactive). In addition, the GI50 in the experiment with SNB-78 was > 10 µM (inactive).
On to `CC(=O)Nc1ccc(-c2nnc(SCC(=O)Nc3cccc(C)c3)o2)cc1`, for which the GI50 was 12.2 µM (inactive) with M19-MEL; 10.3 µM (inactive) in the experiment with DMS-273; 10.2 µM (inactive) in the experiment with KM-20L2; 10.9 µM (inactive) in the experiment with LXFL 529; 2.34 µM (inactive) in the experiment with DMS-114; 16.1 µM (inactive) in the experiment with HOP-18. Also, in the experiment on SNB-78, the GI50 was 13.7 µM (inactive).
Turning to `CCOCN1COCN/C1=N/C#N`, the GI50 was > 100 µM (inactive) in the experiment with XF498; > 100 µM (inactive) in the experiment with DMS-273; > 100 µM (inactive) in the experiment with KM-20L2; > 100 µM (inactive) in the experiment with LXFL 529; 71.4 µM (inactive) in the experiment with DMS-114; > 100 µM (inactive) in the experiment with RXF 631. In addition, the GI50 in the experiment with HOP-18 and with SNB-78 was > 100 µM (inactive) each time.
As for `CCOC(=O)C1S(=O)(=O)OCCOS1(=O)=O`, the GI50 in the experiment with M19-MEL, in the experiment with XF498, with DMS-273, in the experiment with LXFL 529, in the experiment with RXF 631 and in the experiment with SNB-78 was > 100 µM (inactive) each time.
On to `Cc1ccc(S(=O)(=O)OC(COC(=O)c2ccccc2)C(OS(=O)(=O)c2ccc(C)cc2)C(OS(=O)(=O)c2ccc(C)cc2)C(COC(=O)c2ccccc2)OS(=O)(=O)c2ccc(C)cc2)cc1` (stereo unspecified), for which the GI50 with M19-MEL, with DMS-273, with KM-20L2, in the experiment on LXFL 529 and with SNB-78 was > 100 µM (inactive) throughout.
In the case of `COc1cccc(/C=C\c2cc(OC)c(OC)c(OC)c2)c1`, the GI50 was 12.1 µM (inactive) in the experiment with M19-MEL; 2.8 µM (inactive) in the experiment on XF498; 0.553 µM (active) with DMS-273; 0.37 µM (active) in the experiment with KM-20L2; 2.49 µM (inactive) with LXFL 529; 1.48 µM (inactive) in the experiment with DMS-114. The GI50 was 0.836 µM (active) in the experiment with RXF 631 and 1.24 µM (inactive) in the experiment on SNB-78.
As for `Cc1cc(C)c(C(=O)/C=C/c2ccccc2)c(C)c1`, the GI50 is 28.5 µM (inactive) with M19-MEL; 12.6 µM (inactive) in the experiment with XF498; 32.6 µM (inactive) in the experiment on KM-20L2; 31.6 µM (inactive) in the experiment on LXFL 529; 24.1 µM (inactive) with DMS-114; > 100 µM (inactive) in the experiment on HOP-18.
